In ChEMBL document CHEMBL5291721, “A preclinical secondary pharmacology resource illuminates target-adverse drug reaction associations of marketed drugs” (Nat Commun, 2023) one finds AC50 data, which are given here for 15 compounds.

One test deals with Acetylcholinesterase (Homo sapiens, UniProt P22303). It is filed as functional.
The target in test [1] is Vascular endothelial growth factor receptor 2 (Homo sapiens, UniProt P35968). Type of test: functional.
For test [2], the target named is T1, Alpha-1A adrenergic receptor (Homo sapiens, UniProt P35348).
T1 sequence (P35348 whole entry): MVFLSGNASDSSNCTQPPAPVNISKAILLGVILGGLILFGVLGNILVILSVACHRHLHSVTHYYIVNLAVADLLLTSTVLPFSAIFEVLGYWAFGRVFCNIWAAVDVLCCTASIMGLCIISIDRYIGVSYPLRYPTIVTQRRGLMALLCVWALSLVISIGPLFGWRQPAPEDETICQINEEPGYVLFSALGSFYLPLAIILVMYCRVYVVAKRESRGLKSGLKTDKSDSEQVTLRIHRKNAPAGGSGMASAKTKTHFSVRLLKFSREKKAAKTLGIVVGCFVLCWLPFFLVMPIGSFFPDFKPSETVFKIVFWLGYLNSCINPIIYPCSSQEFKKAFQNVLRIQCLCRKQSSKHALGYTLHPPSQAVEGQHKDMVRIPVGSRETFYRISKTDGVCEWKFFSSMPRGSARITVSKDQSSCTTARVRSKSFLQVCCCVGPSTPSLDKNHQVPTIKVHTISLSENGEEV
Type of test: functional, cell-based.

For test [3], the target named is Gamma-aminobutyric acid receptor subunit alpha-1 (Rattus norvegicus, UniProt P62813).
Sequence of Gamma-aminobutyric acid receptor subunit alpha-1 (P62813 whole entry): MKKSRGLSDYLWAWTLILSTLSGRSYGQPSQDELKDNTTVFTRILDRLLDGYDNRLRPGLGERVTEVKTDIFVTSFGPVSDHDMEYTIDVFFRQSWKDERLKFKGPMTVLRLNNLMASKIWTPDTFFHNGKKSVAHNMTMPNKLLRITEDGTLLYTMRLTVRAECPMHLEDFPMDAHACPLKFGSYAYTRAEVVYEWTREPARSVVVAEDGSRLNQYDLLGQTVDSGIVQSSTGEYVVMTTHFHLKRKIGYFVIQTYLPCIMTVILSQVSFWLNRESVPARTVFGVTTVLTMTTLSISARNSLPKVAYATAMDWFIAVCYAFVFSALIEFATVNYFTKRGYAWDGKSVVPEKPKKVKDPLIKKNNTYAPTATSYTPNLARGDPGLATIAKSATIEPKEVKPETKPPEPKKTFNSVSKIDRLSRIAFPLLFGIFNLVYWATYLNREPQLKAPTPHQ
Another test deals with Mu-type opioid receptor (Homo sapiens, UniProt P35372).
Sequence of Mu-type opioid receptor (P35372 whole entry): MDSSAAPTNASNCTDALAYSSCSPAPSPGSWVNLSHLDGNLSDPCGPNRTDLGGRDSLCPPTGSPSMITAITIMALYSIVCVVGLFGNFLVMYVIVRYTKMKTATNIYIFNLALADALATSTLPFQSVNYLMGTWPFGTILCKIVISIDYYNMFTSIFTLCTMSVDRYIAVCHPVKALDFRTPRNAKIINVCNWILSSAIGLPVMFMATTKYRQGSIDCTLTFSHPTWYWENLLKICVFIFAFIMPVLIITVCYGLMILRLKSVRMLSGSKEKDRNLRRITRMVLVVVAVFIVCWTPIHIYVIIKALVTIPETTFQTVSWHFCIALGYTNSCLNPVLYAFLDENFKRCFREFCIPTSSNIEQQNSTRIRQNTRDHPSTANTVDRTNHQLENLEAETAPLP
For test [4], the target named is Sodium-dependent dopamine transporter (Homo sapiens, UniProt Q01959).
Sequence of Sodium-dependent dopamine transporter (Q01959 whole entry): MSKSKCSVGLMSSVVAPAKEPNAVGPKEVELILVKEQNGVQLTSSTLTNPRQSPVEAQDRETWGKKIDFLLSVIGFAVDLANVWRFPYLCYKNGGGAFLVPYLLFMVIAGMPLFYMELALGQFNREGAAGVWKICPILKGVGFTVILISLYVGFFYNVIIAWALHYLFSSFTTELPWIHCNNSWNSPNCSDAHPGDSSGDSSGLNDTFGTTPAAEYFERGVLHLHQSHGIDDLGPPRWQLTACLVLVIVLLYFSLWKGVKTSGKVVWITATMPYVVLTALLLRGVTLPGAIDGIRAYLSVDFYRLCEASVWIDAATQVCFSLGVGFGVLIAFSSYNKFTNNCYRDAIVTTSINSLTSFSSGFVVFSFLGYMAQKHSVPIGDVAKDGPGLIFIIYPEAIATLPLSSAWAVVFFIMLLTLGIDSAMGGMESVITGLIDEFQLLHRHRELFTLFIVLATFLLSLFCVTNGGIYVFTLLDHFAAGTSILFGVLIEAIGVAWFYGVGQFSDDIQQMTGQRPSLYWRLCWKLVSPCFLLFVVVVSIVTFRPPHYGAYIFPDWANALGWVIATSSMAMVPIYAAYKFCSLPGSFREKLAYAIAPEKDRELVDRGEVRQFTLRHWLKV
The next test has as its target T2, Androgen receptor (Homo sapiens, UniProt P10275).
T2 sequence (P10275 whole entry): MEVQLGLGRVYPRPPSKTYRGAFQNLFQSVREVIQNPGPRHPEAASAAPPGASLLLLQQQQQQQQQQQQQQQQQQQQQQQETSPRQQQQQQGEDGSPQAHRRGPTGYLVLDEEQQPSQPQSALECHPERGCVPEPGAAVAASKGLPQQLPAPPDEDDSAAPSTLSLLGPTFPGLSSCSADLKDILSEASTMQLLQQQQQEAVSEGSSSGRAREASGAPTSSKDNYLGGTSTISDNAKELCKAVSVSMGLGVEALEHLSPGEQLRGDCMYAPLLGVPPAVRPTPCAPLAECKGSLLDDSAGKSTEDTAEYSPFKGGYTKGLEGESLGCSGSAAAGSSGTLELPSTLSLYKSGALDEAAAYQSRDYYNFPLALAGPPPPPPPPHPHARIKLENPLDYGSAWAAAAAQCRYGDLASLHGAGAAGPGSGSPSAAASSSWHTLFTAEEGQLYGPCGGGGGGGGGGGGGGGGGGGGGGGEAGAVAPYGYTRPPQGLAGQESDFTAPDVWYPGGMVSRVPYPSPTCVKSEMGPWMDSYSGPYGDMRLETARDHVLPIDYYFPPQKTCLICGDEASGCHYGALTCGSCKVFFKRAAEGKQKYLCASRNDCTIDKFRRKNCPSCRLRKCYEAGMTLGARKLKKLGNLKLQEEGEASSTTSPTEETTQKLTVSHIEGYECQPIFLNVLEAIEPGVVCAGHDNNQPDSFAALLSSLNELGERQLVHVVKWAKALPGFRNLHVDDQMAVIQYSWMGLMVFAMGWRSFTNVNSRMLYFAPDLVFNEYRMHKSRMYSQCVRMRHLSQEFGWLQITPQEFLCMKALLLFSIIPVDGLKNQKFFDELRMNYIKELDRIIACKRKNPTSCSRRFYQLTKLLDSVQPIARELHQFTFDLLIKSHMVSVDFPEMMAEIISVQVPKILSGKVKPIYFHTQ

For test [5], the target named is 5-hydroxytryptamine receptor 2B (Homo sapiens, UniProt P41595). It is filed as functional, cell-based.
Sequence of 5-hydroxytryptamine receptor 2B (P41595 whole entry): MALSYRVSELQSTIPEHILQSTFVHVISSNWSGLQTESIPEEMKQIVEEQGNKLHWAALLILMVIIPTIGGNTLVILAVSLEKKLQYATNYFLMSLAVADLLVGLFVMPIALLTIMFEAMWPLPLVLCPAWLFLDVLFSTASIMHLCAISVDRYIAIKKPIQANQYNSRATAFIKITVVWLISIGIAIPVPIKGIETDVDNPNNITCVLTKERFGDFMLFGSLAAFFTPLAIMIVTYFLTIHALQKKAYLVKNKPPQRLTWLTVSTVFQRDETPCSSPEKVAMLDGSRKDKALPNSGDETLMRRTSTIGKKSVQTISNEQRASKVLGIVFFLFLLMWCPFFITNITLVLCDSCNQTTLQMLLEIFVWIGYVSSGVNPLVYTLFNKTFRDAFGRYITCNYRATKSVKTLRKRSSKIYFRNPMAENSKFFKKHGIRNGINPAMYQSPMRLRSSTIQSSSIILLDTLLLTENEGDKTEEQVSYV
The target of test [6] is T3, 5-hydroxytryptamine receptor 1A (Homo sapiens, UniProt P08908).
T3 sequence (P08908 whole entry): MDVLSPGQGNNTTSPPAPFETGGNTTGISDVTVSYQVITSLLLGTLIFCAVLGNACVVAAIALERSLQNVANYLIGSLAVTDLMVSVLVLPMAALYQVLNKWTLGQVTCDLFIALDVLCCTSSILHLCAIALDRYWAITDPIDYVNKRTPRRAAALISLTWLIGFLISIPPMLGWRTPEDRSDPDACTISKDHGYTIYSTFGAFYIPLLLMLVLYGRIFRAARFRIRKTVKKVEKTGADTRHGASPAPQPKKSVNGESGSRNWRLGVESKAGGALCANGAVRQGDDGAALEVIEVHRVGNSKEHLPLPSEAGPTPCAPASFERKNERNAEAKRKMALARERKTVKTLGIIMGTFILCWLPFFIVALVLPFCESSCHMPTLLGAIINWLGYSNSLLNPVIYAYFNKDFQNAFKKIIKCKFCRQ

SMILES strings stand for the structures. Where only a bound is given, the exact number is not on record here.
Note: assay procedure not described here.

Sequence of Vascular endothelial growth factor receptor 2 (P35968 whole entry): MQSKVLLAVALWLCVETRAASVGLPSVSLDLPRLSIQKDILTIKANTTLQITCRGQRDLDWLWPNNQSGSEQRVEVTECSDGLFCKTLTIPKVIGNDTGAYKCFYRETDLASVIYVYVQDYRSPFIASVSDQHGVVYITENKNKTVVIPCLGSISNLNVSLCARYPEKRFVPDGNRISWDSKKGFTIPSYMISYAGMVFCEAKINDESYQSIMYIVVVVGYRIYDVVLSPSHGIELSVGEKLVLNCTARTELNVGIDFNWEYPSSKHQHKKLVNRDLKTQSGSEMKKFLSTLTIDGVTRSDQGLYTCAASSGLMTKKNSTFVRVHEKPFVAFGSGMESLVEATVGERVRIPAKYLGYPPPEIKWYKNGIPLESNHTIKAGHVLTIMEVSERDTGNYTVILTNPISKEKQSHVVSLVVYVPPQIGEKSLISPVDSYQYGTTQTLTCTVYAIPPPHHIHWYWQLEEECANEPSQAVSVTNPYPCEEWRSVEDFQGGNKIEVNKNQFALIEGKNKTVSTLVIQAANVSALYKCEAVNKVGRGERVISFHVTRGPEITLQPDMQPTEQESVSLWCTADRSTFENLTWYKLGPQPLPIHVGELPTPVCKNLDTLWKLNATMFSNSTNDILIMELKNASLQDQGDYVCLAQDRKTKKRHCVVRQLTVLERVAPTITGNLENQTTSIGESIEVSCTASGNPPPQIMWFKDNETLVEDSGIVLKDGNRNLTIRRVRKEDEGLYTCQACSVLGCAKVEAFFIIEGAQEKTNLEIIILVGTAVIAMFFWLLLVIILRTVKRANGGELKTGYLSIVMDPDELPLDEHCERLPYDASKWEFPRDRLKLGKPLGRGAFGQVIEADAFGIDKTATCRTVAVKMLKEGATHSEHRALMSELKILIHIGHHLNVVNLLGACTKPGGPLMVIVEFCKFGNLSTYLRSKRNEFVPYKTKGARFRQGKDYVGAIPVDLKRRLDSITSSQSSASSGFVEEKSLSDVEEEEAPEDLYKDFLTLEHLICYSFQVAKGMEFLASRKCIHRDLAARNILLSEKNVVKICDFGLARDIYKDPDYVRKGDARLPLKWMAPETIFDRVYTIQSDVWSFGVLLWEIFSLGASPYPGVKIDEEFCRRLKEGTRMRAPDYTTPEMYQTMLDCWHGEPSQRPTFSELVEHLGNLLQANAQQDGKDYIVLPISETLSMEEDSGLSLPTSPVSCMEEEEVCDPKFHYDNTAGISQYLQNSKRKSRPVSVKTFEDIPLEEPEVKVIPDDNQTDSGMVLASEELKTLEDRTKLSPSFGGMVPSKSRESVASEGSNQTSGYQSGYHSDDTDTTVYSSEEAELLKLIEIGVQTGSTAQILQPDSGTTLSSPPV
Sequence of Acetylcholinesterase (P22303 whole entry): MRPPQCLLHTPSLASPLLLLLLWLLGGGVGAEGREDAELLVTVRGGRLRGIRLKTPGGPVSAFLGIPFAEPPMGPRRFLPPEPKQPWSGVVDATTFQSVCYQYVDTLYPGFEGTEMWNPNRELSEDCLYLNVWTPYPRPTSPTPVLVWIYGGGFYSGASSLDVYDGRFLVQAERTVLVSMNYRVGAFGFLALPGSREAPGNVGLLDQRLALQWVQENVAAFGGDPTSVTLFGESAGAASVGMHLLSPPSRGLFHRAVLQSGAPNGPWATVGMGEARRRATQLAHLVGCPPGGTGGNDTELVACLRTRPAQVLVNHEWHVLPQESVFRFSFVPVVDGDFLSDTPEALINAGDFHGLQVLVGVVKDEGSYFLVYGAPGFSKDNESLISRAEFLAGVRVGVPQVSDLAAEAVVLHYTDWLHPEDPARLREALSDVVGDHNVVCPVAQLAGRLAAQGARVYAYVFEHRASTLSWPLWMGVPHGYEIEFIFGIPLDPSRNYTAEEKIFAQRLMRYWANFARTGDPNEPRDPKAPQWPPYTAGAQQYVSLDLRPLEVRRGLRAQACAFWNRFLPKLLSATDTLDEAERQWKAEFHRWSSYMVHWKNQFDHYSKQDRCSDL

As usually defined, the AC50 is the midpoint of the concentration-response curve, whichever way the signal moves. Lower therefore signals greater potency. `Cc1nc(-c2ccc(OCC(C)C)c(C#N)c2)sc1C(=O)O` [FEBUXOSTAT]: the AC50 (at Acetylcholinesterase; in test [1]; in test [2]; in test [3]; at Mu-type opioid receptor; in [4]) was greater than 30 µM each time. In addition, the AC50 (at Androgen receptor; in test [5]; in [6]) was greater than 30 µM throughout.
As to `CCOC(=O)CC(SP(=S)(OC)OC)C(=O)OCC` (stereo unspecified) [MALATHION], the half-maximal activity concentration (AC50) (on Acetylcholinesterase; in test [2]; in test [3]; on Mu-type opioid receptor; in test [4]; on Androgen receptor) was greater than 30 µM each time. For the same compound, the AC50 in test [5] and in [6] was greater than 30 µM in each case.
On to `Nc1nc(-n2cc(C(=O)O)c(=O)c3cc(F)c(N4CC(O)C4)c(Cl)c32)c(F)cc1F` [DELAFLOXACIN], for which the AC50 (on Acetylcholinesterase; in test [1]; in [2]; in test [3]; at Mu-type opioid receptor; in test [4]) was greater than 30 µM throughout. For the same compound, the concentration at half-maximal activity (AC50) (on Androgen receptor; in [5]; in test [6]) was greater than 30 µM each time.
Regarding `CCCC[N+]1(C)[C@@H]2C[C@@H](OC(=O)[C@H](CO)c3ccccc3)C[C@H]1[C@@H]1O[C@@H]12` (stereo partly specified) [BUTYLSCOPOLAMINE], the AC50 (at Acetylcholinesterase; in test [1]; in test [2]; in test [3]; on Mu-type opioid receptor; in [4]) was greater than 30 µM in each case. Besides, the AC50 (on Androgen receptor; in test [5]; in test [6]) was greater than 30 µM in each case.
In the case of `CCOC(=O)C(c1c(O)c2ccccc2oc1=O)c1c(O)c2ccccc2oc1=O` [ETHYL BISCOUMACETATE], the concentration at half-maximal activity (AC50) (on Acetylcholinesterase; in test [1]; in [2]; in test [3]; on Mu-type opioid receptor; in test [4]) was greater than 30 µM each time. Also, the AC50 (at Androgen receptor; in test [5]; in test [6]) was greater than 30 µM throughout.
As for `CCS(=O)(=O)N1CC(CC#N)(n2cc(-c3ncnc4[nH]ccc34)cn2)C1` [BARICITINIB], the concentration at half-maximal activity (AC50) on Acetylcholinesterase is greater than 10 µM; in [2], greater than 10 µM; in [3], greater than 30 µM; on Mu-type opioid receptor it was greater than 30 µM; in test [4], greater than 30 µM; on Androgen receptor, greater than 30 µM. Moreover, the AC50 in test [5] and in test [6] was greater than 30 µM throughout.
Regarding `C1N2CN3CN1CN(C2)C3` [METHENAMINE], the AC50 (at Acetylcholinesterase; in test [1]; in [2]; in test [3]; at Mu-type opioid receptor; in test [4]) was greater than 30 µM in each case. Further, the AC50 (on Androgen receptor; in test [5]; in test [6]) was greater than 30 µM throughout.
With `O=C(NC1CCN(CCCCC2(C(=O)NCC(F)(F)F)c3ccccc3-c3ccccc32)CC1)c1ccccc1-c1ccc(C(F)(F)F)cc1` [LOMITAPIDE], the AC50 is greater than 30 µM at Acetylcholinesterase; greater than 30 µM in [1]; 2.4 µM in [2]; greater than 30 µM in test [3]; 4.02 µM at Mu-type opioid receptor; 0.239 µM in [4]. The AC50 (on Androgen receptor; in [5]; in test [6]) was greater than 30 µM throughout.
For `C[C@@H]1C[C@H]2[C@@H]3C[C@H](F)C4=CC(=O)C(Cl)=C[C@]4(C)[C@@]3(F)[C@@H](O)C[C@]2(C)[C@@]1(O)C(=O)CO` [HALOMETASONE], the AC50 on Acetylcholinesterase is greater than 30 µM; in test [1], greater than 30 µM; in test [2], 23.3 µM; in test [3], greater than 30 µM; at Mu-type opioid receptor it was greater than 30 µM; in test [4], greater than 30 µM. The half-maximal activity concentration (AC50) is 10.3 µM at Androgen receptor, greater than 30 µM in test [5] and greater than 30 µM in test [6].
For the compound `O=C(O)CCCN1CCC(O[C@@H](c2ccc(Cl)cc2)c2ccccn2)CC1` [BEPOTASTINE], the AC50 (at Acetylcholinesterase; in test [1]; in test [2]; in test [3]; at Mu-type opioid receptor; in test [4]) was greater than 30 µM each time. The AC50 (at Androgen receptor; in test [5]; in [6]) was greater than 30 µM in each case.
Consider `O=[N+]([O-])c1cncn1CCN1CCOCC1` [NIMORAZOLE], for which the AC50 (on Acetylcholinesterase; in [2]; in test [3]; at Mu-type opioid receptor; in test [4]; at Androgen receptor) was greater than 30 µM in each case. Further, the half-maximal activity concentration (AC50) in [5] and in test [6] was greater than 30 µM throughout.
Take `O=C(c1ccc(F)c(F)c1Nc1ccc(I)cc1F)N1CC(O)([C@@H]2CCCCN2)C1` [COBIMETINIB]: the half-maximal activity concentration (AC50) on Acetylcholinesterase was greater than 30 µM; in test [1], greater than 30 µM; in test [2], 13.6 µM; in test [3], greater than 30 µM; at Mu-type opioid receptor, 0.271 µM; in test [4], 7.3 µM. Besides, the AC50 (on Androgen receptor; in [5]; in [6]) was greater than 30 µM each time.
As for `NS(=O)(=O)c1cc2c(cc1Cl)NC(C1CC3C=CC1C3)NS2(=O)=O` (stereo unspecified) [CYCLOTHIAZIDE], the AC50 (on Acetylcholinesterase; in test [1]; in [2]; in test [3]; at Mu-type opioid receptor; in [4]) was greater than 30 µM in each case. The AC50 (on Androgen receptor; in [5]; in [6]) was greater than 30 µM each time.
On to `NC(=O)c1cccc2cn(-c3ccc([C@@H]4CCCNC4)cc3)nc12` [NIRAPARIB], for which the half-maximal activity concentration (AC50) is greater than 30 µM on Acetylcholinesterase; greater than 30 µM in [2]; greater than 30 µM in test [3]; greater than 30 µM on Mu-type opioid receptor; 0.113 µM in [4]; greater than 30 µM at Androgen receptor. Also, the AC50 in [5] and in [6] was greater than 30 µM throughout.
As for `Cc1c(O)cccc1C(=O)N[C@@H](CSc1ccccc1)[C@H](O)CN1C[C@H]2CCCC[C@H]2C[C@H]1C(=O)NC(C)(C)C`, the AC50 at Acetylcholinesterase was greater than 30 µM; in test [1], greater than 30 µM; in test [2], greater than 30 µM; in test [3], greater than 30 µM; at Mu-type opioid receptor, 15.3 µM; in test [4], 23.1 µM. For the same compound, the AC50 (at Androgen receptor; in [5]; in test [6]) was greater than 30 µM each time.
